In the NIST ThermoML archive (doi:10.1016/j.jct.2007.09.011):

Key:
[1] = 101 kPa, Liquid
[2] = refractive index (Na D-line) (dimensionless); settings: 298.15 K; 101.33 kPa; Liquid
[3] = refractive index (Na D-line) (dimensionless); xn = mol fraction of the nth substance listed; settings: 298.15 K, 101 kPa, Liquid
[4] = xn = mol fraction of the nth substance listed; settings: 101 kPa, Liquid

CCCCCCCC[n+]1ccn(C)c1.F[B-](F)(F)F [1-methyl-3-octylimidazolium tetrafluoroborate]
[1]
Settings	mass density [kg/m3]
298.15 K	1101.08
308.15 K	1094.13
318.15 K	1087.24

Settings	refractive index
[2]	1.4319

CCCCCCCC[n+]1ccn(C)c1.F[B-](F)(F)F [1-methyl-3-octylimidazolium tetrafluoroborate] + COCCOCCOCCO
Settings	refractive index
[3], x1 = 1	1.4319

[4], x1 = 1
Settings	mass density [kg/m3]
298.15 K	1101.08
308.15 K	1094.13
318.15 K	1087.24

COCCOCCOCCO [2-[2-(2-methoxyethoxy)ethoxy]ethanol] + CCCCCCCC[n+]1ccn(C)c1.F[B-](F)(F)F
[3]
Settings	refractive index
x2 = 0	1.4362
x2 = 0.0122	1.4364
x2 = 0.0223	1.4366
x2 = 0.0994	1.4372
x2 = 0.2073	1.4373
x2 = 0.3192	1.4369
x2 = 0.42	1.4361
x2 = 0.5301	1.4352
x2 = 0.7153	1.4334
x2 = 0.8449	1.4325
x2 = 0.9395	1.4321
x2 = 0.992	1.432

mass density [kg/m3], [4]
Settings	298.15 K	308.15 K	318.15 K
x2 = 0	1044.91	1036.11	1027.28
x2 = 0.0122	1046.7	1037.94	1029.17
x2 = 0.0223	1048.13	1039.41	1030.69
x2 = 0.0994	1057.7	1049.21	1040.84
x2 = 0.2073	1067.89	1059.71	1051.67
x2 = 0.3192	1075.71	1067.81	1060
x2 = 0.42	1081.2	1073.51	1065.88
x2 = 0.5301	1086.14	1078.64	1071.18
x2 = 0.7153	1093.01	1085.74	1078.58
x2 = 0.8449	1097.08	1089.95	1082.96
x2 = 0.9395	1099.66	1092.63	1085.72
x2 = 0.992	1100.9	1093.94	1087.05

COCCOCCO [2-(2-methoxyethoxy)ethanol]
[1]
Settings	mass density [kg/m3]
298.15 K	1014.87
308.15 K	1005.99

Settings	refractive index
[2]	1.4242

CCCCCCCC[n+]1ccn(C)c1.F[B-](F)(F)F [1-methyl-3-octylimidazolium tetrafluoroborate] + COCCOCCO
Settings	refractive index
[3], x1 = 1	1.4319

COCCOCCO [2-(2-methoxyethoxy)ethanol] + CCCCCCCC[n+]1ccn(C)c1.F[B-](F)(F)F
[3]
Settings	refractive index
x2 = 0	1.4242
x2 = 0.0088	1.4227
x2 = 0.0165	1.4251
x2 = 0.0745	1.4271
x2 = 0.1611	1.4288
x2 = 0.2555	1.4298
x2 = 0.3459	1.4304
x2 = 0.4603	1.4308
x2 = 0.6468	1.4312
x2 = 0.8198	1.4314
x2 = 0.9227	1.4317
x2 = 0.9912	1.4318

mass density [kg/m3], [4]
Settings	298.15 K	308.15 K	318.15 K
x2 = 0	1014.87	1005.99	–
x2 = 0.0088	1017.27	1008.44	999.55
x2 = 0.0165	1019.28	1010.49	1001.65
x2 = 0.0745	1032.37	1023.86	1015.33
x2 = 0.1611	1046.73	1038.56	1030.36
x2 = 0.2555	1058.05	1050.15	1042.23
x2 = 0.3459	1066.48	1058.76	1051.05
x2 = 0.4603	1075.27	1067.73	1060.25
x2 = 0.6468	1086.77	1079.5	1072.31
x2 = 0.8198	1094.83	1087.77	1080.74
x2 = 0.9227	1098.58	1091.61	1084.65
x2 = 0.9912	1100.8	1093.85	1086.95

CCCCCCCC[n+]1ccn(C)c1.F[B-](F)(F)F [1-methyl-3-octylimidazolium tetrafluoroborate] + COCCO
[3]
Settings	refractive index
x1 = 0.0106	1.4015
x1 = 0.0477	1.4057
x1 = 0.1083	1.4108
x1 = 0.1495	1.4134
x1 = 0.2062	1.4163
x1 = 0.2827	1.4193
x1 = 0.3204	1.4208
x1 = 0.542	1.4258
x1 = 0.7354	1.4285
x1 = 0.9632	1.4312
x1 = 0.9929	1.4318
x1 = 1	1.4319

mass density [kg/m3], [4]
Settings	298.15 K	308.15 K	318.15 K
x1 = 0.0106	965.72	956.59	947.31
x1 = 0.0477	983.08	974.21	965.56
x1 = 0.1083	1004.86	996.43	987.84
x1 = 0.1495	1016.31	1007.97	999.62
x1 = 0.2062	1029.2	1021.09	1012.99
x1 = 0.2827	1042.98	1035.09	1027.25
x1 = 0.3204	1048.69	1041.05	1033.14
x1 = 0.542	1073.51	1066.16	1058.83
x1 = 0.7354	1087.07	1079.83	1072.61
x1 = 0.9632	1098.9	1092.03	1085.14
x1 = 0.9929	1098.25	1091.42	1084.47
x1 = 1	1101.08	1094.13	1087.24

COCCOCCOCCO [2-[2-(2-methoxyethoxy)ethoxy]ethanol]
[1]
Settings	mass density [kg/m3]
298.15 K	1044.91
308.15 K	1036.11
318.15 K	1027.28

Settings	refractive index
[2]	1.4362

COCCO [2-methoxyethan-1-ol] + CCCCCCCC[n+]1ccn(C)c1.F[B-](F)(F)F
Settings	refractive index
[3], x2 = 0	1.4004

[4], x2 = 0
Settings	mass density [kg/m3]
298.15 K	960.05
308.15 K	950.81
318.15 K	941.45

COCCO [2-methoxyethan-1-ol]
[1]
Settings	mass density [kg/m3]
298.15 K	960.05
308.15 K	950.81
318.15 K	941.45

Settings	refractive index
[2]	1.4004
